Data on one molecule can be found in patent publication US20100120776A1, “Carbocysteine medical foods” (Hall Bioscience Corporation, priority 2008, published 2010).

The nature of one series: in vivo. The conditions noted are these: beagle, dog, plasma.
Series [1] can be described thus: Buccal availability study: pharmacokinetics and bioavailability of carbocysteine in dogs (buccal vs oral vs IV). The conditions noted are these: beagle dogs; range across buccal and oral routes; no significant differences.
Method: (§1) A study was conducted in dogs to determine the pharmacokinetics and bioavailability of a buccal formulation of carbocysteine in comparison to oral and IV routes of administration.
(§2) The study was conducted according to the following methodology. A 400 mg dissolving tablet, a 400 mg oral tablet, and a 200 mg IV dose of carbocysteine were administered to each of five beagle dogs in a randomized crossover pattern. […] The dissolving tablet was administered to the animal by placing the tablet in the mouth until it dissolved. The oral tablet was administered by forcing the animal to swallow the tablet. […] Plasma concentrations were measured by precolumn derivatization of S-carboxymethylcysteine using o-phthaldialdehyde (OPA) and subsequent HPLC analysis. All data were analyzed using WinNonlin®, a tool for pharmacokinetic and pharmacodynamic analysis. The carbocysteine plasma data was fitted to a one-compartment model with first-order elimination. The pharmacokinetic parameters (t1/2, CL, Vd) generated from each route of administration were compared using analysis of variance (ANOVA) to detect statistically significant differences. A paired t-test was used to detect the differences in Cmax, Tmax, Ka, and F between buccal and oral routes of administration.

One may read the Vd as the apparent volume that relates the amount in the body to the concentration in plasma or blood. Lower therefore signals little distribution into tissue. By clearance is commonly meant the rate of elimination divided by the concentration. A low value points to inefficient removal. A word on the half-life: it is the time needed for the level to fall by half in the phase considered. A high value points to slow decline. What is called Tmax is the time from dosing to the highest level.

Method for in vivo: as §1, §2

Regarding `N[C@@H](CSCC(=O)O)C(=O)O` [carbocysteine, S-carboxymethyl-L-cysteine], in the series “in vivo”, the Vd was in the range of 0.405 to 0.418 L/kg, the clearance fell in the range of 4.52 to 4.64 mL/min/kg and the half-life was in the range of 1.02 to 1.07 h. Also, the Tmax in the series “in vivo” (400 mg) was 1.5 to 1.55 h. Besides, in series [1], the Ka was 0.028−0.034 min^−1.
